Article PMC6902879 (Journal of medicinal chemistry, 2019)

Columns and labels:
[1] = system: ydgR, fepA, ompF deletion mutants of E. coli; format: cell-based; conditions: compared with wild-type E. coli
[2] = system: esterase (bioH, yjfP, frsA, ybfF, yfbB, ypfH, yeiG or yqiA) deletion mutants of E. coli; assay: Antibacterial activity against esterase deletion mutants of E. coli; format: cell-based; conditions: eight single esterase gene deletion mutants
E. coli = assay: Antibacterial activity before and after treatment with porcine liver esterase; format: cell-based; conditions: [PLE] = 1 U/mL
[3] = Static light scattering before and after addition of PLE; format: physicochemical; conditions: compound 200 μM, [PLE] = 1 U/mL, 24 h
[4] = E. coli (K-12) lysate 0.1 U/mL, compound 200 μM, lysate activities normalized
E. coli (K-12) = assay: Antibacterial activity; format: cell-based; conditions: minimum inhibitory concentration, wild type E. coli (K-12)
HS-5 cells = conditions: 24 h; CL, CLsu and conjugates 20 μM; Cipro, TMP, TEL 0.5 μM
[5] = Serum stability in human serum; conditions: human serum (from human male AB plasma), 200 μM, 37 °C, LC-MS
Water solubility = format: physicochemical; conditions: in words only

Compound | effect of deletion of ydgR, fepA or ompF on bacterial viability under treatment [1] | reduction of antibacterial activity by deletion of a cytoplasmic esterase [2] | change of inhibitory efficacy on addition of exogenous PLE (E. coli) | intensity of static light scattering signal after addition of PLE [3] | apparent first-order rate constant of hydrolysis [4] [h⁻¹] | MIC (E. coli (K-12)) [µM] | other results
NCCCC[C@@H](NC(=O)[C@@H](CCCCN)NC(=O)CCC(=O)OC[C@@H](NC(=O)C(Cl)Cl)[C@H](O)c1ccc([N+](=O)[O-])cc1)C(=O)O [Compound 2b] | hardly rescues the bacteria | about 20% | hardly changes the inhibitory efficacy | increase drastically | 0.317 |  | 
O=C(O)CC[C@@H](NC(=O)[C@@H](CCC(=O)O)NC(=O)CCC(=O)OC[C@@H](NC(=O)C(Cl)Cl)[C@H](O)c1ccc([N+](=O)[O-])cc1)C(=O)O [Compound 2g] |  |  |  |  |  | > 200 | 
O=C(O)CNC(=O)[C@@H](CO)NC(=O)CCC(=O)OC[C@@H](NC(=O)C(Cl)Cl)[C@H](O)c1ccc([N+](=O)[O-])cc1 [Compound 1d] | hardly rescues the bacteria | ~10% | hardly changes the inhibitory efficacy | increase drastically | 1.267 |  | 
O=C(O)C[C@@H](NC(=O)[C@@H](CC(=O)O)NC(=O)CCC(=O)OC[C@@H](NC(=O)C(Cl)Cl)[C@H](O)c1ccc([N+](=O)[O-])cc1)C(=O)O [Compound 2h] |  |  |  |  |  | > 200 | 
O=C(O)CCC(=O)OC[C@@H](NC(=O)C(Cl)Cl)[C@H](O)c1ccc([N+](=O)[O-])cc1 [CLsu, chloramphenicol succinate, reference compound] |  |  |  |  |  |  | cytotoxicity against HS-5 cells (HS-5 cells): lower cytotoxicity than CL; conversion to CL after 24 h ([5]; 24 h): less than 15%
O=C(CCC(=O)OC[C@@H](NC(=O)C(Cl)Cl)[C@H](O)c1ccc([N+](=O)[O-])cc1)NCC(=O)N[C@H](CO)C(=O)O [Compound 1c] | hardly rescues the bacteria | about 20% | hardly changes the inhibitory efficacy | increase drastically | 3.763 |  | time to complete hydrolysis [5]: ≤ 2 h
COC(=O)CCC(=O)OC[C@@H](NC(=O)C(Cl)Cl)[C@H](O)c1ccc([N+](=O)[O-])cc1 [Compound 4b] |  |  |  |  |  | >200 | water solubility (Water solubility): water-insoluble
C[C@@H](NC(=O)CCC(=O)OC[C@@H](NC(=O)C(Cl)Cl)[C@H](O)c1ccc([N+](=O)[O-])cc1)C(=O)O [Compound 4a] |  |  |  |  |  | > 200 | 
CC[C@H]1OC(=O)[C@H](C)C(=O)[C@H](C)[C@@H](O[C@@H]2O[C@H](C)C[C@H](N(C)C)[C@H]2O)[C@](C)(OC)C[C@@H](C)C(=O)[C@H](C)[C@H]2N(CCCCn3cnc(-c4cccnc4)c3)C(=O)O[C@]12C [telithromycin] |  |  |  |  |  |  | cytotoxicity against HS-5 cells (HS-5 cells): relatively low cytotoxicity
NCCCC[C@H](NC(=O)[C@H](CCCCN)NC(=O)CCC(=O)OC[C@@H](NC(=O)C(Cl)Cl)[C@H](O)c1ccc([N+](=O)[O-])cc1)C(=O)O [Compound 2c] | hardly rescues the bacteria | about 20% | hardly changes the inhibitory efficacy | increase drastically | 0.310 |  | 
